Values quoted from earlier work, collected in patent US20230277510A1, “SIROLIMUS MICROSPHERES AND METHOD OF MAKING SIROLIMUS MICROSPHERES” (M.A. Med Alliance SA, priority 2022, published 2023).

octanol/water partition coefficient (log P): 4.3
Compound: CO[C@H]1C[C@@H]2CC[C@@H](C)[C@@](O)(O2)C(=O)C(=O)N2CCCC[C@H]2C(=O)O[C@H]([C@H](C)C[C@@H]2CC[C@@H](O)[C@H](OC)C2)CC(=O)[C@H](C)/C=C(\C)[C@@H](O)[C@@H](OC)C(=O)[C@H](C)C[C@H](C)/C=C/C=C/C=C/1C [SRL, sirolimus]
